Assay results reported in patent US20080207632A1, “PROTEIN KINASE INHIBITORS” (SUPERGEN, INC., priority 2006, published 2008).
Read-outs that look alike come from different tables or passages of the source.

Key:
MiaPaCa-2 (pancreas) = assay: in vitro cytotoxicity assay (Cell-Titer-Glo), MiaPaCa-2; assay type: cell-based; conditions: Homo sapiens, MIA PaCa-2; Table 10; 96 hours; read-out: IC50 MiaPaCa-2 (inhibit cell growth to 50% of untreated)
TT (medullary thyroid) = assay: in vitro cytotoxicity assay (Cell-Titer-Glo), TT; assay type: cell-based
Method: (§1) To evaluate cell killing of cancer cell lines, an in vitro cytotoxicity assay was performed. The tumor cell lines used were purchased from the American Type Culture Collection, and are identified as follows: Panc-1 (pancreas), MiaPaCa-2 (pancreas), MCF-7 (breast), HT-29 (colon), U2-OS (osteosarcoma), OVCAR-3 (ovary), HepG2 (hepatocellular carcinoma) and TT (medullary thyroid). The assay utilized the Cell-Titer-Glo Non-Radioactive Cell Proliferation Assay (Promega Corp., Madison, Wis.). First the cells were cultured in RPMI 1640 medium (Cat# 21870-076, Invitrogen Corporation) supplemented with 300 mg/L L-glutamine, 100 units/ml penicillin, 100 μg/ml streptomycin and 10% fetal bovine serum. All the cell lines were incubated in a humidified incubator at 37° C. with 5% CO2 atmosphere.
Cells were plated at a density of 2000 to 10000 cells per well, depending on their growth rate, in 0.09 mL medium on day 0 in 96-well Microlite TCT microtiter plates (7418, Thermo Labsystems, Franklin, Mass.). On day 1, 10 μL of serial dilutions of the individual compounds were added to the plates in replicates of 3. After incubation for 4 days at 37° C. in a humidified incubator, the cells were lysed in the Cell-Titer-Glo reagent, which also contains luciferase enzyme. The luciferase reaction utilizes ATP released from lysed cells to produce light, the intensity of which is linearly related to the amount of ATP. Thus, the amount of light produced is a reflection of the number of cells remaining in the well after drug treatment. This luminescence was measured using a Luminoskan luminometer (Thermo Electron Corp., Vantaa, Finland) Data were expressed as the percentage of survival of control cells calculated from the luminescence corrected for background. The surviving percent of cells was determined by dividing the mean luminescence values of the treated wells by the mean luminescence values of the control and multiplying by 100.
as §1, with “Briefly,” for “To evaluate cell killing of cancer cell lines, an in vitro cytotoxicity assay was performed. The”, “thyroid), PC-3 (prostate) and A549 (lung).” for “thyroid).”
Cell culture-based assays can be used to evaluate the ability of compounds of the invention to inhibit one or more cellular activities, such as cancer cell growth and/or survival. Numerous cancer cell lines can be obtained from the American Type Culture Collection (ATCC) and other sources. Briefly, cells are seeded into 96-well, tissue-culture treated, opaque white plates (Thermo Electron, Vantaa, Finland), at between 5000 and 10000 cells per well, depending on the speed of cell proliferation, in 100 μl of appropriate growth medium (determined by the ATCC). Cells are then exposed to the appropriate concentration of drug or an equal amount of DMSO (drug diluent) and allowed to grow in its presence for 96 hours. Following this, 100 μl of Cell-Titer-Glo reagent (Promega, Inc., Madison, Wis.) is added to each well. Plates are then shaken for 2 minutes at room temperature to allow for cell lysis and incubated for 10 minutes to stabilize the luminescent signal. Similar to the Kinase-Glo assay reagent from Promega, this reagent contains both luciferase enzyme and its substrate luciferin. Luciferase, activated by ATP in the cell lysate, catalyzes the conversion of luciferin to oxyluciferin, a reaction which produces light. […]

[1] = system: Histone H3 phospho-Serine 10 in MiaPaCa-2 cells; assay: Western Blot for Histone H3 phospho-Serine 10; assay type: cell-based; conditions: synchronized MiaPaCa-2 cells, 30 µM compound, 24 hours
Description: A hallmark of Aurora-2 kinase inhibition, which distinguishes it from Aurora-1 kinase inhibition, is an increase in Histone H3 phosphorylation on Serine 10, an activity which is controlled by Aurora-1 kinase. This is in contrast to the decrease in Histone H3 phosphorylation that has been observed with Aurora-1 kinase inhibition. Compound 2-3 was examined for its effect on Histone H3 phosphorylation, in order to further verify its specificity for Aurora-2 kinsase. Briefly, MiaPaCa-2 cells were grown in 25 cm^2 flasks to approximately 40% confluency, and then synchronized with Aphidicolin and Hoechst 33342 as described above. Cell were then released and treated with 30 µM compound 2-3 in culture medium for 24 hours. Cells were then lysed, and total protein was quantified. 50 μg of total protein was electrophoresed and transferred to nitrocellulose, at which time Western Blot analysis for Histone H3 phospho-Serine 10 was performed. […] This signal quickly disappeared, as the cells began to undergo apoptosis, as discussed earlier.

[2] = system: HT-29 human colon cancer cells; assay: HT-29 xenograft study in mice (Example 57); assay type: in vivo; conditions: 5 mg/kg IP, QDx5 for three weeks
Method: In order to evaluate the effectiveness of compound 2-5 against tumor cells in a living system, a xenograft study was performed in mice. 1×10^7 HT-29 human colon cancer cells were injected subcutaneously into Nu/Nu athymic nude mice (Charles River Laboratories, Wilmington, Mass.). Tumor volume was measured according to the formula ((Width)^2*Length)/2. Tumors were allowed to grow to approximately 200 mm^3 in volume (Day 0), at which point mice were randomized to three groups. Eight mice were grouped to receive SGI-1097 as treatment, and two groups of eight would receive vehicle alone as a negative control. The SGI-1097 compound was formulated in the following vehicle: 10% EtOH; 30% PEG 300; 60% solution of 300 mg/ml 2-Hydroxypropyl-beta-cyclodextrin in water.
In the treatment group, each animal received 5 mg/kg of compound 2-5 in the aforementioned vehicle at a volume of 100 μl, dosed IP. The dosing schedule was QDx5 for three weeks. […]
Another negative control group was dosed PO with corn oil on the same dosing schedule. The tumor volumes for both the treated and untreated groups were measured twice a week for the three week dosing period, and for one week after the dosing period.

[3] = 96 h, Example 20, 4 days, read-out: Cell-based IC50 values TT

Row | Compound | IC50 (TT (medullary thyroid); [3]) | further results
1 | CC(=O)NS(=O)(=O)c1ccc(NC(=S)N2CCN(c3ncnc4[nH]c5cc(C(F)(F)F)c(Cl)cc5c34)CC2)cc1 [Compound 1-1, 4-(6-Chloro-7-trifluoromethyl-9H-pyrimido[4,5-b]indol-4-yl)-piperazine-1-carbothioic acid (4-acetylsulfamoyl-phenyl)-amide] | 11 µM | IC50 (MiaPaCa-2 (pancreas)): 66.6 µM; IC50 (TT (medullary thyroid); 96 h, Example 18, 4 days, read-out: calculated IC50 TT): 51.7 µM; IC50 (TT (medullary thyroid); Table 10, 96 hours, read-out: IC50 TT (inhibit cell growth to 50% of untreated)): 51.7 µM
2 | COc1cc2[nH]c3ncnc(N4CCN(C(=S)Nc5ccc(S(=O)(=O)NC(C)=O)cc5)CC4)c3c2cc1OC [Compound 1-2, 4-(6,7-Dimethoxy-9H-pyrimido[4,5-b]indol-4-yl)-piperazine-1-carbothioic acid (4-acetylsulfamoyl-phenyl)-amide] | 64 µM | 
3 | CC(=O)NS(=O)(=O)c1ccc(NC(=S)N2CCN(c3ncnc4[nH]c5ccc(Cl)cc5c34)CC2)cc1 [Compound 1-3, 4-(6-chloro-9H-pyrimido[4,5-b]indol-4-yl)-piperazine-1-carbothioic acid (4-acetylsulfamoyl-phenyl)-amide] | 13.2 µM | 
4 | COc1cc2[nH]c3ncnc(N4CCN(C(=S)Nc5ccc(NC(=O)C6CC6)cc5)CC4)c3c2cc1OC [Compound 1-34] | 99.1 µM | 
5 | COc1cc2[nH]c3ncnc(N4CCN(C(=S)Nc5ccc(NC(C)=O)cc5)CC4)c3c2cc1OC [Compound 1-42] | 129 µM | 
6 | COc1cc2[nH]c3ncnc(N4CCN(C(=S)Nc5ccc(S(N)(=O)=O)cc5)CC4)c3c2cc1OC [Compound 1-107] | 147 µM | 
7 | COc1cc2[nH]c3ncnc(N4CCN(C(=S)Nc5ccc(S(C)(=O)=O)cc5)CC4)c3c2cc1OC [Compound 1-115] | 38.6 µM | 
8 | COc1cc2[nH]c3ncnc(N4CCN(C(=S)Nc5ccc(S(=O)(=O)Nc6ccc(F)cc6)cc5)CC4)c3c2cc1OC [Compound 2-3, 4-(6,7-dimethoxy-9H-pyrimido[4,5-b]indol-4-yl)-N-(4-(N-(4-fluorophenyl)sulfamoyl)phenyl)piperazine-1-carbothioamide] |  | Histone H3 Serine 10 phosphorylation [1]: pronounced phosphorylation signal
9 | COc1ccc2c(c1)[nH]c1ncnc(N3CCN(C(=S)Nc4ccc(S(=O)(=O)Nc5ccc(F)cc5)cc4)CC3)c12 [Compound 2-5, 4-(7-methoxy-9H-pyrimido[4,5-b]indol-4-yl)-N-(4-(N-(4-fluorophenyl)sulfamoyl)phenyl)piperazine-1-carbothioamide] |  | toxicity through the duration of the study [2]: No noticeable toxicity; tumor growth inhibition in vivo [2]: effective for inhibiting tumor growth in vivo
